Numbered stars: 1 amine (or outer) side, 2 acyl side, 3 side chain; on linkers, the order of the positions; unused ones are H or OH. Bridge positions count the residues as written; N and C are the ends. Square brackets hold non-standard residues; d marks the D form. Peptide text beside a SMILES is read from it. * marks the point of attachment. ξ: configuration not given here. Phe(4-CH2CH2COOH) = N[C@@H](Cc1ccc(CCC(=O)O)cc1)C(=O)O; Phe(3-CF3) = N[C@@H](Cc1cccc(C(F)(F)F)c1)C(=O)O; Bip = N[C@@H](Cc1ccc(-c2ccccc2)cc1)C(=O)O; NH(CH2)14COOH = O=C(O)CCCCCCCCCCCCCCN*; Phe(3-F) = N[C@@H](Cc1cccc(F)c1)C(=O)O; Phe(3-Me) = Cc1cccc(C[C@H](N)C(=O)O)c1; γGlu = O=C(O)[C@H](CCC(=O)[*:2])N[*:1]; X19 = O=C([C@@H]1CC(O)CN1[*:1])[*:2]; Val(3-OH) = CC(C)(O)[C@H](N)C(=O)O; Cha = N[C@@H](CC1CCCCC1)C(=O)O; Cit = NC(=O)NCCC[C@H](N)C(=O)O; Thr(3ξ) = CC(O)[C@H](N)C(=O)O; Carboxymethyl = O=C(O)C*; Orn = NCCC[C@H](N)C(=O)O; dNMeA = CN[C@H](C)C(=O)O; Aun = NCCCCCCCCCCC(=O)O; Dab = NCC[C@H](N)C(=O)O; Dap = NC[C@H](N)C(=O)O; AEEA = NCCOCCOCC(=O)O

The target of this experiment is T1, PD-1/PD-L1 interaction (PE-labeled human PD-L1-Ig binding to Jurkat cell line over-expressing human PD-1) (Homo sapiens, UniProt Q15116).
T1 construct: expressed in transfected cells; host or cells: Jurkat
T1 sequence (Q15116 25-288): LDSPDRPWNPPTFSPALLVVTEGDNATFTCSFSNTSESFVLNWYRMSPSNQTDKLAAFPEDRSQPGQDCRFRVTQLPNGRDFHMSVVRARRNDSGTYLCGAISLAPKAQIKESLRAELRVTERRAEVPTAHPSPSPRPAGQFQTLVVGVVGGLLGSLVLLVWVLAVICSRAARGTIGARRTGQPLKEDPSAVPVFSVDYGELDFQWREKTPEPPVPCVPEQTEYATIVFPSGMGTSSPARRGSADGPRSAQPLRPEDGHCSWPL
The experiment can be described thus: Jurkat-PD-1 Cell Binding High-Content Screening Assay (CBA). The class given is cell-based. The conditions noted are these: Jurkat cell line over-expressing human PD-1; PE-labeled PD-L1-Ig 20 nM final; read-out: Jurkat hPD1-PDL1 IC50. The method, boiled down:
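Jurkat cells over-expressing human PD-1 (8×10^3 per well, DMEM/10% FCS) preincubated with compound 2 h at 37° C, then PE-labeled human PD-L1-Ig (20 nM final) added for 1 h. Cells fixed with paraformaldehyde, Hoechst-stained, and bound fluorescence quantified by high-content imaging.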
Take `Cc1cccc(C[C@@H]2NC(=O)[C@H](CC(=O)O)NC(=O)[C@H](Cc3ccc(OCC(=O)O)cc3)NC(=O)[C@H](CCCN)NC(=O)CSC[C@@H](C(=O)N[C@@H](CCN)C(=O)NCCCCCCCCCCC(=O)O)NC(=O)[C@H](CO)NC(=O)[C@H](C(C)(C)O)NC(=O)[C@H](CC3CCCCC3)NC(=O)[C@H](CCN)NC(=O)[C@@H](CC(C)C)NC(=O)[C@H](CCCN)NC(=O)[C@H](Cc3ccc(OCC(=O)O)cc3)NC(=O)[C@H](Cc3ccc(-c4ccccc4)cc3)NC(=O)[C@H](Cc3ccc(OCC(=O)O)cc3)NC2=O)c1` [Compound 2212] ({CH2CO}-[Orn]Y(Carboxymethyl)D[Phe(3-Me)]Y(Carboxymethyl)[Bip]Y(Carboxymethyl)[Orn][dL][Dab][Cha][Val(3-OH)]SC[Dab][Aun]-OH; thioether N-14): the half-maximal inhibitory concentration (IC50) is 10 nM.

As to `Cc1cccc(C[C@@H]2NC(=O)[C@H](CC(=O)O)NC(=O)[C@H](Cc3ccc(OCC(=O)O)cc3)NC(=O)[C@H](CN)NC(=O)CSC[C@@H](C(=O)N(C)[C@H](C)C(=O)N[C@@H](CCC(=O)O)C(=O)NCCCCCCCCCCC(=O)O)NC(=O)[C@H]([C@@H](C)O)NC(=O)[C@H](C(C)C)NC(=O)[C@H](CC3CCCCC3)NC(=O)[C@H](CCN)NC(=O)[C@@H](CC(C)C)NC(=O)[C@H](CCCN)NC(=O)[C@H](CCCNC(N)=O)NC(=O)[C@H](Cc3ccc(-c4ccccc4)cc3)NC(=O)[C@H](C(C)C)NC2=O)c1` [Compound 2809] ({CH2CO}-[Dap]Y(Carboxymethyl)D[Phe(3-Me)]V[Bip][Cit][Orn][dL][Dab][Cha]VTC[dNMeA]E[Aun]-OH; thioether N-14), the IC50 came to 180 nM.

Take `CC(=O)NCCCC[C@@H]1NC(=O)[C@H](Cc2ccc(OCC(=O)O)cc2)NC(=O)[C@H](Cc2ccc(-c3ccccc3)cc2)NC(=O)[C@H](Cc2ccc(OCC(=O)O)cc2)NC(=O)[C@H](Cc2cccc(C)c2)NC(=O)[C@H](CC(=O)O)NC(=O)[C@H](Cc2ccc(OCC(=O)O)cc2)NC(=O)[C@H](C(C)O)NC(=O)CSC[C@@H](C(=O)N[C@@H](CCN)C(=O)NCCCCCCCCCCC(=O)O)NC(=O)[C@H](C(C)O)NC(=O)[C@H](C(C)C)NC(=O)[C@H](CC2CCCCC2)NC(=O)[C@H](CCN)NC(=O)[C@@H](CC(C)C)NC1=O` (stereo partly drawn) [Compound 3495] ({CH2CO}-[Thr(3ξ)]Y(Carboxymethyl)D[Phe(3-Me)]Y(Carboxymethyl)[Bip]Y(Carboxymethyl)K(Ac)[dL][Dab][Cha]V[Thr(3ξ)]C[Dab][Aun]-OH; thioether N-14): the half-maximal inhibitory concentration (IC50) amounted to 16.8 nM.

Consider `Cc1cccc(C[C@@H]2NC(=O)[C@H](CC(=O)O)NC(=O)[C@H](Cc3ccc(CCC(=O)O)cc3)NC(=O)[C@H](CCN)NC(=O)CSC[C@@H](C(=O)N[C@@H](CCN)C(=O)NCCCCCCCCCCC(=O)O)NC(=O)[C@H](CO)NC(=O)[C@H](C(C)(C)O)NC(=O)[C@H](CC3CCCCC3)NC(=O)[C@H](CCN)NC(=O)[C@@H](CC(C)C)NC(=O)[C@H](CCCN)NC(=O)[C@H](Cc3ccc(OCC(=O)O)cc3)NC(=O)[C@H](Cc3ccc(-c4ccccc4)cc3)NC(=O)[C@H](Cc3cccc(F)c3)NC2=O)c1` [Compound 2144] ({CH2CO}-[Dab][Phe(4-CH2CH2COOH)]D[Phe(3-Me)][Phe(3-F)][Bip]Y(Carboxymethyl)[Orn][dL][Dab][Cha][Val(3-OH)]SC[Dab][Aun]-OH; thioether N-14), for which the concentration for half-maximal inhibition (IC50) was found to be 7.3 nM.

For `CC(C)C[C@H]1NC(=O)[C@H](CCCN)NC(=O)[C@H](C(C)C)NC(=O)[C@H](Cc2ccc(-c3ccccc3)cc2)NC(=O)[C@H](C(C)C)NC(=O)[C@H](Cc2c[nH]c3ccccc23)NC(=O)[C@H](CC(=O)O)NC(=O)[C@H](Cc2ccc(OCC(=O)O)cc2)NC(=O)[C@H](CN)NC(=O)CSC[C@@H](C(=O)N[C@@H](CC(=O)O)C(=O)NCC(=O)NCCCCCCCCCCC(=O)O)NC(=O)[C@H]([C@@H](C)O)NC(=O)[C@H](C(C)C)NC(=O)[C@H](CC2CCCCC2)NC(=O)[C@H](Cc2cnc[nH]2)NC1=O` [Compound 1092] ({CH2CO}-[Dap]Y(Carboxymethyl)DWV[Bip]V[Orn][dL]H[Cha]VTCDG[Aun]-OH; thioether N-14), the IC50 was determined as 37.3 nM.

In the case of `Cc1cccc(C[C@@H]2NC(=O)[C@H](CC(=O)O)NC(=O)[C@H](Cc3ccc(OCC(=O)O)cc3)NC(=O)[C@H](C(C)O)NC(=O)CSC[C@@H](C(=O)N[C@@H](CCN)C(=O)NCCCCCCCCCCC(=O)O)NC(=O)[C@H](CO)NC(=O)[C@H](C(C)(C)O)NC(=O)[C@H](CC3CCCCC3)NC(=O)[C@H](Cc3cnc[nH]3)NC(=O)[C@@H](CC(C)C)NC(=O)[C@H](CCCN)NC(=O)[C@H](Cc3ccc(OCC(=O)O)cc3)NC(=O)[C@H](Cc3ccc(-c4ccccc4)cc3)NC(=O)[C@H](Cc3ccc(OCC(=O)O)cc3)NC2=O)c1` (stereo partly drawn) [Compound 3720] ({CH2CO}-[Thr(3ξ)]Y(Carboxymethyl)D[Phe(3-Me)]Y(Carboxymethyl)[Bip]Y(Carboxymethyl)[Orn][dL]H[Cha][Val(3-OH)]SC[Dab][Aun]-OH; thioether N-14), the IC50 is 11.7 nM.

As for `CC(C)C[C@H]1NC(=O)[C@H](CCCN)NC(=O)[C@H](C(C)C)NC(=O)[C@H](Cc2ccc(-c3ccccc3)cc2)NC(=O)[C@H](C(C)C)NC(=O)[C@H](Cc2c[nH]c3ccccc23)NC(=O)[C@H](CC(=O)O)NC(=O)[C@H](Cc2ccc(OCC(=O)O)cc2)NC(=O)[C@H](CN)NC(=O)CSC[C@@H](C(=O)NCCOCCOCC(=O)N[C@H](CCCCN)C(=O)NCCCCCCCCCCC(=O)O)NC(=O)[C@H]([C@@H](C)O)NC(=O)[C@H](C(C)C)NC(=O)[C@H](CC2CCCCC2)NC(=O)[C@H](Cc2cnc[nH]2)NC1=O` [Compound 1131] ({CH2CO}-[Dap]Y(Carboxymethyl)DWV[Bip]V[Orn][dL]H[Cha]VTC[AEEA][dK][Aun]-OH; thioether N-14), the IC50 is 14.3 nM.

As to `CC(C)C[C@H]1NC(=O)[C@H](CCCN)NC(=O)[C@H](C(C)C)NC(=O)[C@H](Cc2ccc(-c3ccccc3)cc2)NC(=O)[C@H](C(C)C)NC(=O)[C@H](Cc2c[nH]c3ccccc23)NC(=O)[C@H](CC(=O)O)NC(=O)[C@H](Cc2c[nH]cn2)NC(=O)[C@H](CCCNC(=N)N)NC(=O)CSC[C@@H](C(=O)N[C@@H](CCN)C(=O)NCCCCCCCCCCC(=O)O)NC(=O)[C@@H]2CC(O)CN2C(=O)[C@H](C(C)C)NC(=O)[C@H](CC2CCCCC2)NC(=O)[C@H](CCN)NC1=O` (stereo partly drawn) [Compound 3275] ({CH2CO}-RHDWV[Bip]V[Orn][dL][Dab][Cha]V[X19]C[Dab][Aun]-OH; thioether N-14), the IC50 was 411 nM.

As to `CC(C)C[C@H]1NC(=O)[C@H](CCCN)NC(=O)[C@H](Cc2ccc(OCC(=O)O)cc2)NC(=O)[C@H](Cc2ccc(-c3ccccc3)cc2)NC(=O)[C@H](Cc2ccc(OCC(=O)O)cc2)NC(=O)[C@H](Cc2cccc(C(F)(F)F)c2)NC(=O)[C@H](CC(=O)O)NC(=O)[C@H](Cc2ccc(OCC(=O)O)cc2)NC(=O)[C@H](Cc2ccc(OCC(=O)O)cc2)NC(=O)CSC[C@@H](C(=O)N[C@@H](CCN)C(=O)NCCOCCOCC(=O)NCCOCCOCC(=O)N[C@@H](CCC(=O)N[C@@H](CCC(=O)NCCCCCCCCCCCCCCC(=O)O)C(=O)O)C(=O)O)NC(=O)[C@H](Cc2cnc[nH]2)NC(=O)[C@H](C(C)(C)O)NC(=O)[C@H](CC2CCCCC2)NC(=O)[C@H](CCN)NC1=O` [Compound 3872] ({CH2CO}-Y(Carboxymethyl)Y(Carboxymethyl)D[Phe(3-CF3)]Y(Carboxymethyl)[Bip]Y(Carboxymethyl)[Orn][dL][Dab][Cha][Val(3-OH)]HC[Dab][AEEA][AEEA][γGlu][γGlu]-{NH(CH2)14COOH}; thioether N-14), the IC50 came to 174 nM.

As a reminder, the IC50 is the point on the concentration scale where inhibition reaches its midpoint.

Values taken from patent US20260022142A1, “MACROCYCLIC IMMUNOMODULATORS” (Bristol-Myers Squibb Company, priority 2022, published 2026).
